This passage reports Activity results from ChEMBL document CHEMBL2074432, “Human jejunal permeability of cyclosporin A: influence of surfactants on P-glycoprotein efflux in Caco-2 cells” (Pharm Res, 2003).

For the series, the target named is ATP-dependent translocase ABCB1 (Homo sapiens, UniProt P08183). The experiment in a line: TP_TRANSPORTER: transepithelial transport of cyclosporin A in Caco-2 cells. It counts as functional, cell-based. For orientation: Caco-2 cells form a polarised layer with tight junctions and transporters.
Chain of ATP-dependent translocase ABCB1 (P08183 whole entry): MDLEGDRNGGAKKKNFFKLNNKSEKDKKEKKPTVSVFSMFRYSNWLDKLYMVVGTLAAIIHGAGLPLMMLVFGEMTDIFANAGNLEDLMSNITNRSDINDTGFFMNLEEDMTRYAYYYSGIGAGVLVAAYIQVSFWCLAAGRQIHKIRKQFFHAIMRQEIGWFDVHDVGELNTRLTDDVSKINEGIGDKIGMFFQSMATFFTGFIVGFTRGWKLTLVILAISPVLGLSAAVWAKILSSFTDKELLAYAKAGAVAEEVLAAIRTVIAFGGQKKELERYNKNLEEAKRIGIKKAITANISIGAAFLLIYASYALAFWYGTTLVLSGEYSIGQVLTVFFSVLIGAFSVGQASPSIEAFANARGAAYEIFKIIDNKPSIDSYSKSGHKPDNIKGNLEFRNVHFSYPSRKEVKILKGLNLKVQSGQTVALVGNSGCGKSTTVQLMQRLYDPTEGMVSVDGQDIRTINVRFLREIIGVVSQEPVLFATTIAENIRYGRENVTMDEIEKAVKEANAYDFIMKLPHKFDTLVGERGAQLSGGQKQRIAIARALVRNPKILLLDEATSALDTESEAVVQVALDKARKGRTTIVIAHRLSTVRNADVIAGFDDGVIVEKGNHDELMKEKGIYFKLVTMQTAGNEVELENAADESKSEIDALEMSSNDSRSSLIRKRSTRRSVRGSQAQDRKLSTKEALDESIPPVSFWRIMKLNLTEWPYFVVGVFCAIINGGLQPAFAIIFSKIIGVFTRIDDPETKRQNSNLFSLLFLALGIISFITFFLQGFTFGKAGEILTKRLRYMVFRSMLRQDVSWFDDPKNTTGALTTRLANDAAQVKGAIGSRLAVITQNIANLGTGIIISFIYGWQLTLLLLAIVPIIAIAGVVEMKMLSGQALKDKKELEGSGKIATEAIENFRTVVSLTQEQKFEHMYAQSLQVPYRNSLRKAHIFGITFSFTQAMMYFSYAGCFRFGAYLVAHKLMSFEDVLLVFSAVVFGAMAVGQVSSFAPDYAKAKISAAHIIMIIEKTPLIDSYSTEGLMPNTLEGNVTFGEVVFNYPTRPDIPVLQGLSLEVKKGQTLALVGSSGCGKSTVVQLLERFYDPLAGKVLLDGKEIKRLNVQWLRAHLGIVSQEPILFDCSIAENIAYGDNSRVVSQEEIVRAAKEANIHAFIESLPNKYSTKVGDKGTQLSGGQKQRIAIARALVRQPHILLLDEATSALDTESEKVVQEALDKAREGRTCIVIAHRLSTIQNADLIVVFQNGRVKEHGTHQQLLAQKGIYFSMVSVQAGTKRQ

For the sequence CREMOPHOR EL, the Activity entry was “inhibitor [+]”. As for CREMOPHOR RH 40, the Activity entry was “inhibitor [+]”.
